# Numbers after ± are expanded uncertainties.
# Assay: activity coefficient (dimensionless); of the first substance listed, at infinite dilution; xn = mol fraction of the nth substance listed
# Details: 363.65 K; Liquid; x1 = 0
row,activity coefficient,Structure (SMILES)
1,2 ± 0.18,C1CCOC1 [tetrahydrofuran] + CCCCn1cc[n+](C)c1.F[B-](F)(F)F
2,3.81 ± 0.35,C1CCOC1 [tetrahydrofuran] + CCCCn1cc[n+](C)c1.[Cl-]
3,3.48 ± 0.32,C1CCOC1 [tetrahydrofuran] + CCn1cc[n+](C)c1.F[B-](F)(F)F
4,0.68 ± 0.06,O [water] + CCCCCCCC[n+]1ccn(C)c1.F[B-](F)(F)F
5,0.61 ± 0.06,O [water] + CCCCn1cc[n+](C)c1.F[B-](F)(F)F
6,0.1,O [water] + CCCCn1cc[n+](C)c1.[Cl-]
7,0.45 ± 0.07,O [water] + CCn1cc[n+](C)c1.F[B-](F)(F)F

# Second part, the compound before the results:
row,Structure (SMILES),activity coefficient
1,CCO [ethanol] + CCCCCCCC[n+]1ccn(C)c1.F[B-](F)(F)F,0.81 ± 0.06
2,CCO [ethanol] + CCCCn1cc[n+](C)c1.F[B-](F)(F)F,1.25 ± 0.08
3,CCO [ethanol] + CCCCn1cc[n+](C)c1.[Cl-],0.2 ± 0.07
4,CCO [ethanol] + CCn1cc[n+](C)c1.F[B-](F)(F)F,1.33 ± 0.09
5,CO [methanol] + CCn1cc[n+](C)c1.F[B-](F)(F)F,0.4 ± 0.07
6,C1CCOC1 [tetrahydrofuran] + CCCCCCCC[n+]1ccn(C)c1.F[B-](F)(F)F,1.09 ± 0.06

# Reference: the NIST ThermoML archive (doi:10.1016/j.jct.2005.04.013)
